Experimental data taken from ChEMBL document CHEMBL5113531, “Discovery of Potent Cholinesterase Inhibition-Based Multi-Target-Directed Lead Compounds for Synaptoprotection in Alzheimer's Disease” (J Med Chem, 2022).
The source made the active and inactive calls. The rule behind the calls is not given here.

Key:
[1] = target: T1, Sigma intracellular receptor 2 (Rattus norvegicus, UniProt Q5U3Y7); experiment: Displacement of [3H]DTG from sigma 2 receptor in rat liver membranes measured after 120 mins by scintillation counting method; type: cell membranes, Membrane
T1 sequence (Q5U3Y7 whole entry): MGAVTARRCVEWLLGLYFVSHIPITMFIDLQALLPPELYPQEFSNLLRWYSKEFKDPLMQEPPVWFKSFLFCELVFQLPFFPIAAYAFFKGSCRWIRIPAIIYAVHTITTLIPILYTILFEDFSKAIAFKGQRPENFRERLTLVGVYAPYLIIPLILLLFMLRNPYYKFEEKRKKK

[2] = Selectivity index, ratio of Ki for displacement of [3H]DTG from sigma 2 receptor in rat liver membranes to Ki for displacement of [3H]-(+)-pentazocine from sigma1 receptor in guinea pig brain membrane; type: cell membranes
[3] = target: Glutamate receptor ionotropic, NMDA 2B (Homo sapiens, UniProt Q13224); experiment: Displacement of [3H]ifenprodil from recombinant human GluN2B NMDA receptor (unknown origin) expressed in dexamethasone-induced mouse L-M(TK-) cell after 120 mins by microbeta scintillation counting method; type: cell-based
Cholinesterase = Cholinesterase (Homo sapiens, UniProt P06276); experiment: Inhibition of human recombinant BuChe using butyrylthiocholine iodide as substrate incubated for 10 mins by DTNB reagent based Ellman's method
[4] = target: Sigma non-opioid intracellular receptor 1 (Cavia porcellus, UniProt Q60492); type: cell membranes, Brain, Membrane;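 also: radioligand displacement of [3H]-(+)-pentazocine binding to sigma1 receptor in guinea pig brain membranes, read by scintillation counting after a 120 min incubation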
Description: Displacement of [3H]-(+)-pentazocine from sigma1 receptor in guinea pig brain membrane measured after 120 mins by scintillation counting method

Acetylcholinesterase = Acetylcholinesterase (Homo sapiens, UniProt P22303); experiment: Inhibition of human recombinant AChe using acetylthiocholine iodide as substrate incubated for 10 mins by DTNB reagent based Ellman's method
SH-SY5Y [5] = experiment: Glio-protective activity in Abeta42 induced stress human SH-SY5Y cells measured after 72 hrs by CTG luminescence assay; type: functional, cell-based
[6] = Hepatotoxicity in […] cells assessed as reduction in cell viability at 10 to 80 uM measured after 24 hrs by CTG- luminescence assay; type: toxicity, cell-based; settings: human
Danio rerio [7] = organism: Danio rerio; experiment: Neuroprotective activity against Abeta42 induced zebrafish AD model assessed as reversal of reduction in synaptic integrity at 10 uM measured after 5 days; type: functional, organism-based; settings: time 5.0 day
SH-SY5Y [8] = experiment: Glio-protective activity in H2O2 induced human SH-SY5Y cells measured after 48 hrs by MTT assay; type: functional, cell-based
[9] = Selectivity index, ratio of Ki for displacement of [3H]-(+)-pentazocine from sigma1 receptor in guinea pig brain membrane to Ki for displacement of [3H]DTG from sigma 2 receptor in rat liver membranes; type: cell membranes
P2X purinoceptor 7 = target: T2, P2X purinoceptor 7 (Homo sapiens, UniProt Q99572); experiment: Antagonist activity at human P2X7 receptor expressed in HEK293 cells assessed as reduction in YO-PRO-1 iodide dye uptake preincubated for 30 mins followed by YO-PRO-1 iodide addition and measured after 120 mins by fluorescence plate reader analysis; type: cell-based
T2 sequence (Q99572 whole entry): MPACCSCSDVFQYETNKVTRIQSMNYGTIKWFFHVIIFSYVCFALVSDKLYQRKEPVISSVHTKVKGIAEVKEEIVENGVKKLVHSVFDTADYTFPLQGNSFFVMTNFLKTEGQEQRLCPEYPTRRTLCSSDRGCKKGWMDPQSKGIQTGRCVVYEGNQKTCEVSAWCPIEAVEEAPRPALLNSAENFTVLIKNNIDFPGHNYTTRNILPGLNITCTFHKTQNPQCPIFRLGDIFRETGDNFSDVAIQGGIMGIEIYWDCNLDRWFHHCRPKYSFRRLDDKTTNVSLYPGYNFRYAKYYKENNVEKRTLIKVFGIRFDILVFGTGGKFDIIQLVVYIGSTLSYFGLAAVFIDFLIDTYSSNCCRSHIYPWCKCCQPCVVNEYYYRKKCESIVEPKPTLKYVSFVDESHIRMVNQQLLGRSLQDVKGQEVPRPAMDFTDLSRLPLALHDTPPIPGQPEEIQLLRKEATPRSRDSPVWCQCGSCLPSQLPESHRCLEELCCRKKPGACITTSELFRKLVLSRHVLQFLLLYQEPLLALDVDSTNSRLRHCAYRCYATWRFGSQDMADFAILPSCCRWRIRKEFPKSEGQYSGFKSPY

SH-SY5Y [10] = experiment: Neuroprotective activity in Abeta42 induced stress human SH-SY5Y cell model measured after 72 hrs by CTG luminescence assay; type: functional, cell-based
Cytochrome P450 2C9 = Cytochrome P450 2C9 (Homo sapiens, UniProt P11712); experiment: Inhibition of CYP2C9 (unknown origin) preincubated for 10 mins followed by NADP addition measured after 50 mins; type: ADME
Danio rerio [11] = organism: Danio rerio; experiment: Anti-neuroinflammatory activity in Abeta42 induced zebrafish AD model assessed as reduction in number of activated microglia relative to control; type: functional; parameters: scale not given: the % may be the effect or the level left
Cytochrome P450 3A4 = Cytochrome P450 3A4 (Homo sapiens, UniProt P08684); experiment: Inhibition of CYP3A4 (unknown origin) preincubated for 10 mins followed by NADP addition measured after 50 mins; type: ADME
Cytochrome P450 2D6 = Cytochrome P450 2D6 (Homo sapiens, UniProt P10635); experiment: Inhibition of CYP2D6 (unknown origin) preincubated for 10 mins followed by NADP addition measured after 50 mins; type: ADME
SH-SY5Y [12] = experiment: Neuroprotective activity in H2O2 induced stress human SH-SY5Y cell model measured after 48 hrs by MTT assay; type: functional, cell-based
Danio rerio [13] = organism: Danio rerio; experiment: Neuroprotective activity against zebrafish AD model assessed as reversal of reduction in synaptic integrity at 10 uM measured after 5 days in presence of Abeta42 relative to control; type: functional; parameters: scale not given: the % may be the effect or the level left; settings: time 5 day
PC-12 [14] = experiment: Neuroprotective activity in […] PC-12 cells assessed as induction of NGF-mediated neurite sprouting measured after 4 days by measuring fold change; type: functional, Rattus norvegicus; settings: time 4 day
Danio rerio [15] = organism: Danio rerio; experiment: Neuroprotective activity against zebrafish AD model assessed as reversal of reduction in synaptic integrity at 10 uM measured after 5 days relative to control; type: functional; parameters: scale not given: the % may be the effect or the level left; settings: time 5 day
[16] = Permeability of the compound at pH 6.8 by HDM-PAMPA assay; type: ADME; settings: read-out: permeability
[17] = Cytotoxicity against HEK293 cells assessed as reduction in cell viability at 10 to 80 uM measured after 24 hrs by CTG- luminescence assay; type: toxicity, cell-based; settings: human
[18] = Permeability of the compound across blood brain barrier at pH 7.4 incubated for 16 hrs by PAMPA assay; type: ADME; settings: read-out: permeability
PC-12 [19] = experiment: Neuroprotective activity in […] PC-12 cells assessed as induction of NGF-mediated neurite outgrowth measured after 4 days by measuring fold change; type: functional, Rattus norvegicus; settings: time 4 day

Sigma non-opioid intracellular receptor 1, sequence (Q60492 whole entry): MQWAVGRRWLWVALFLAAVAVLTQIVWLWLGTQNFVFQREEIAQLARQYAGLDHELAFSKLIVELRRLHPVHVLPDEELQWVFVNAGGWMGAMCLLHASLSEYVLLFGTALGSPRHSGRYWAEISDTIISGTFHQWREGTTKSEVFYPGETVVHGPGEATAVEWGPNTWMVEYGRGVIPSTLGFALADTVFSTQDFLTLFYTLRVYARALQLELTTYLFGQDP
Glutamate receptor ionotropic, NMDA 2B, sequence (Q13224 whole entry): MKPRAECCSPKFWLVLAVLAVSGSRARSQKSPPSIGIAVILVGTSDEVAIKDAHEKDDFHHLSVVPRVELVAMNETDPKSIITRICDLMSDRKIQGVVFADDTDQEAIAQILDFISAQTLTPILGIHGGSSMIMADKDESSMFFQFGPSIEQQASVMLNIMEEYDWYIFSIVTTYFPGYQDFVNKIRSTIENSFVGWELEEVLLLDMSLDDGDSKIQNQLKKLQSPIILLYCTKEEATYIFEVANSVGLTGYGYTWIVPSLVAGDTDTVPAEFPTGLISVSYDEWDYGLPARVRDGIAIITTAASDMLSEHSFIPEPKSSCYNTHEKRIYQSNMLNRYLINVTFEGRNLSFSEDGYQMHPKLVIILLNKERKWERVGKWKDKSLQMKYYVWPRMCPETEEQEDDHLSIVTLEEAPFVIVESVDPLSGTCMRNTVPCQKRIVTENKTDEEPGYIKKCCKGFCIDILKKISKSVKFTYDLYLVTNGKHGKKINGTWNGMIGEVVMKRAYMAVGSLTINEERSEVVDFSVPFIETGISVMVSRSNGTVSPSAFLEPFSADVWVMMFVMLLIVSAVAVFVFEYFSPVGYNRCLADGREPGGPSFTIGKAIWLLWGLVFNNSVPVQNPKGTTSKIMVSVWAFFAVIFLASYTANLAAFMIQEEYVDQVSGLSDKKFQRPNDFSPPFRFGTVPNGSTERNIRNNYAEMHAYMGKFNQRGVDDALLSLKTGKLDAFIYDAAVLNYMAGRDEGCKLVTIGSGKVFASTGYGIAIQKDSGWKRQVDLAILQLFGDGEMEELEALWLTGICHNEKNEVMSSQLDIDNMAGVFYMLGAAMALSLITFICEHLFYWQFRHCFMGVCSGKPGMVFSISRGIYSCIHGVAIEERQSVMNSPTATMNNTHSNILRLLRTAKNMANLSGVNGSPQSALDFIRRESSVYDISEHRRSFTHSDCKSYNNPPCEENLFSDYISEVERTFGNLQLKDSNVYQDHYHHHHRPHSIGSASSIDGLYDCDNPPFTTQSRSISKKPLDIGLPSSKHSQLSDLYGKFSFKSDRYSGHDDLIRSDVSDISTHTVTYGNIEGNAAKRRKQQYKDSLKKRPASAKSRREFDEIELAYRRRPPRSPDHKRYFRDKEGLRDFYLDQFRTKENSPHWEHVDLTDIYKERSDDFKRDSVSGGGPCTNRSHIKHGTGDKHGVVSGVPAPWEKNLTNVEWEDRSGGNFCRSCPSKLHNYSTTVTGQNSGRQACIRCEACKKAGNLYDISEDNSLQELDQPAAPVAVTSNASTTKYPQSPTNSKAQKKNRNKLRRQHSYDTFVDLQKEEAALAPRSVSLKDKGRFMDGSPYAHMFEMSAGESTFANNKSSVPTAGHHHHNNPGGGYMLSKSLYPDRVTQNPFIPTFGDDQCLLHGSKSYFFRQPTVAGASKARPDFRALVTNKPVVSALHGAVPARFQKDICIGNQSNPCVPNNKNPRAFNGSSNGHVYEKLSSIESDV
Acetylcholinesterase, sequence (P22303 whole entry): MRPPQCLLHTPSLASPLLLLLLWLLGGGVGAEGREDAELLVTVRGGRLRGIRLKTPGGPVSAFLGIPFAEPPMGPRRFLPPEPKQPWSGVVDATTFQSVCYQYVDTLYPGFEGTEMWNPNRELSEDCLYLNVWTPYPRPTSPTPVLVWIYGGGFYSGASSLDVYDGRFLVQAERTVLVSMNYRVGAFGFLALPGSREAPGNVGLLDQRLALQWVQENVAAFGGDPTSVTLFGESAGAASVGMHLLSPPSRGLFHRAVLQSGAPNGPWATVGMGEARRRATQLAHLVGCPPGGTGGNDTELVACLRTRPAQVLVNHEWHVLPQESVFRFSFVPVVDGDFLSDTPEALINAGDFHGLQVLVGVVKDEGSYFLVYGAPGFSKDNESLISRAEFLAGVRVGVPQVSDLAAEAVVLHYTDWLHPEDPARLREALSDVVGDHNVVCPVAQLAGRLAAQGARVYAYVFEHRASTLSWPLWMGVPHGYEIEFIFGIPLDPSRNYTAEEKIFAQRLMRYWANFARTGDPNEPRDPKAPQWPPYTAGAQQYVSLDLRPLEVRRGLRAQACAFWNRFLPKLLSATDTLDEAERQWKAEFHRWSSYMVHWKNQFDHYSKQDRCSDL
Cholinesterase, sequence (P06276 whole entry): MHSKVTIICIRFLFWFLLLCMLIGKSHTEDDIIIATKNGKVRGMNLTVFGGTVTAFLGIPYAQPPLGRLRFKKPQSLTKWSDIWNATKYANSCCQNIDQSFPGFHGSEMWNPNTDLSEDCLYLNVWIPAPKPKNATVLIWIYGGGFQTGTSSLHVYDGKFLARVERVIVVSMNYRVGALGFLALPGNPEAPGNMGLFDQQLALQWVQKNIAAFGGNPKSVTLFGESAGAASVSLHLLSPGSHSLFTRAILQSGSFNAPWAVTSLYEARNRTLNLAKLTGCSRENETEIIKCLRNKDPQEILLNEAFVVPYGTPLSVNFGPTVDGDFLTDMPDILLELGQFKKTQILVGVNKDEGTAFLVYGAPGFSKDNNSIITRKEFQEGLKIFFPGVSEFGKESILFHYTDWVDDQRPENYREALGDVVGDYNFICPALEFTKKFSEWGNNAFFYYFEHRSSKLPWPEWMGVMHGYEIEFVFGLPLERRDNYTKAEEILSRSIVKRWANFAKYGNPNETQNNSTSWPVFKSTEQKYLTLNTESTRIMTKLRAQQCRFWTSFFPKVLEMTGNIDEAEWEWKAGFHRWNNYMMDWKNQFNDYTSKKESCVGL
Cytochrome P450 2D6, sequence (P10635 whole entry): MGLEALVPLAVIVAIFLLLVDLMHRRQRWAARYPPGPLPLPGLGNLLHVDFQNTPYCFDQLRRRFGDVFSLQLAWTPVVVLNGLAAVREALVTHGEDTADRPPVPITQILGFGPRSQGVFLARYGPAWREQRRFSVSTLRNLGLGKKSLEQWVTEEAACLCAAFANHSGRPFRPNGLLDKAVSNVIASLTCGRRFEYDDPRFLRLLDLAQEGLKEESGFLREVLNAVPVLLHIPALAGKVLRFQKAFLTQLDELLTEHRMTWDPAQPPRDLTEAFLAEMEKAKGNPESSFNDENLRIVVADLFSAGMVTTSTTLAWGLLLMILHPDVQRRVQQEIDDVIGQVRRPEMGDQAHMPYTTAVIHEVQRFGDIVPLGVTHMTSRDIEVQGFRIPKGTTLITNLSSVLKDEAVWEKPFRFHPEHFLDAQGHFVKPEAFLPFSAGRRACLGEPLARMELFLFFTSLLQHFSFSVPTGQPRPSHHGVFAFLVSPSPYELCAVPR
Cytochrome P450 3A4, sequence (P08684 whole entry): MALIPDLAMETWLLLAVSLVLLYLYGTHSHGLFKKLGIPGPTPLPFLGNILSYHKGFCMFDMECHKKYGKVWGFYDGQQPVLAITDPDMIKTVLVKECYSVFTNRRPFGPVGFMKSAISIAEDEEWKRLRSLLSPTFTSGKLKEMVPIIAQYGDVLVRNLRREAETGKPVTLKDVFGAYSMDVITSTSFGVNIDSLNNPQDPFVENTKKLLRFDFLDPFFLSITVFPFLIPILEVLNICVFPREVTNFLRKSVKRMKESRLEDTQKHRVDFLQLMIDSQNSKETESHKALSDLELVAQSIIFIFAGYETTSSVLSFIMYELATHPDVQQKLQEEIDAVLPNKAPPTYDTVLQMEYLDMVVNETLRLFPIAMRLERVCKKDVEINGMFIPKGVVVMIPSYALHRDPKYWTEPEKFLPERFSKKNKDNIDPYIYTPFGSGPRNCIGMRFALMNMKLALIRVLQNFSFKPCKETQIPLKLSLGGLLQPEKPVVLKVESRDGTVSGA
Cytochrome P450 2C9, sequence (P11712 whole entry): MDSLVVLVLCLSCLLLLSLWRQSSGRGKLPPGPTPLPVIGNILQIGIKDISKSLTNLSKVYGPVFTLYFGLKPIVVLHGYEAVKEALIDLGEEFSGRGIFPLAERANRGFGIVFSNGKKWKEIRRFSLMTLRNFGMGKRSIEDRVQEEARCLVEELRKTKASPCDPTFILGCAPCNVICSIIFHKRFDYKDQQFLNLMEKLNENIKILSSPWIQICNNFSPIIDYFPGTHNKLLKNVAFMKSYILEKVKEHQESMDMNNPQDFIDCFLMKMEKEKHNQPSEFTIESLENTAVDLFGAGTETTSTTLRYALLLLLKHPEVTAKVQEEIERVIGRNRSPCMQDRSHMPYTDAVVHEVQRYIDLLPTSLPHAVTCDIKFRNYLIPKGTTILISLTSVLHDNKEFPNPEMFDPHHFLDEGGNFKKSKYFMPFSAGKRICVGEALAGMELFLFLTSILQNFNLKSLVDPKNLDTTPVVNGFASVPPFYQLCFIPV

SMILES | Ki [1] [nM] | Ratio Ki [2] | Ki [3] [nM] | IC50 (Cholinesterase) [nM] | Ki [4] [nM] | IC50 (Acetylcholinesterase) [nM] | other results
Cc1cccc2sc(NC(=O)CCN3CCN(C(C)(C)C)CC3)nc12 | 200 | 1.36 | 476 | > 40000 | 147 | 810 | 
CC(=O)c1ccc(N2CCN(CCC(=O)Nc3nc4c(C)cccc4s3)CC2)cc1 | > 1000 |  | 187 | 3040 | 1000 | 3820 | 
Cc1cccc2sc(NC(=O)CCN3CCN(Cc4cc(F)ccc4F)CC3)nc12 | > 1000 |  | > 1000 | 7660 | 1000 | 12600 | 
Cc1cccc2sc(NC(=O)CCN3CCN(C4CCCCC4)CC3)nc12 | 233 | 9.71 | 213 | 3190 | 24 | 10900 | Activity (SH-SY5Y [5]): Active; IC50 at 24 h [6]: 47100 nM; Activity (Danio rerio [7]): Active; Activity (SH-SY5Y [8]): Active
Cc1cccc2sc(NC(=O)CCN3CCN(Cc4ccc(C(C)(C)C)cc4)CC3)nc12 | 238 |  | > 1000 | 9320 | 238 | 40000 | 
CCN1CCN(CCC(=O)Nc2nc3c(C)cccc3s2)CC1 | 1200 | 2.21 | > 1000 | > 40000 | 543 | 20600 | 
Cc1cccc2sc(NC(=O)CCN3CCN(c4ccncc4)CC3)nc12 | 1700 |  | 184 | > 40000 | 9600 | 18200 | Ratio Ki [9]: 5.65; IC50 (P2X purinoceptor 7): 1130 nM; Activity (SH-SY5Y [10]): Active; IC50 (Cytochrome P450 2C9): 2460 nM; Activity (Danio rerio [11]): 25.9%; IC50 (Cytochrome P450 3A4): 1140 nM; IC50 (Cytochrome P450 2D6): 13600 nM; Activity (Danio rerio [7]): Active; Activity (SH-SY5Y [12]): Active
CCOCCN1CCN(CCC(=O)Nc2nc3c(C)cccc3s2)CC1 | 1600 | 2.78 | > 1000 | 39000 | 575 | 20100 | 
Cc1cccc2sc(NC(=O)CCN3CCN(CC4CCCCC4)CC3)nc12 | 519 | 14.8 | 60 | 7650 | 35 | 340 | Activity (SH-SY5Y [10]): Active; IC50 at 24 h [6]: 30700 nM; Activity (Danio rerio [7]): Active; Activity (SH-SY5Y [12]): Active
Cc1cccc2sc(NC(=O)CCN3CCN(CCN(C(C)C)C(C)C)CC3)nc12 | 121 |  | 202 | > 40000 | 809 | 240 | Ratio Ki [9]: 6.68; Activity (Danio rerio [13]): 37.1%; Activity (SH-SY5Y [10]): Active; fold change (FC) (PC-12 [14]): 3.7; Activity (Danio rerio [15]): 15.1%; Activity (Danio rerio [7]): Active; Activity (SH-SY5Y [12]): Active
Cc1cccc2sc(NC(=O)CCN3CCN(CCCN(C)C)CC3)nc12 | > 1000 | > 1.75 | 1800 | > 40000 | 570 | 410 | Papp [16]: 4.5 ×10⁻⁶ cm/s; IC50 (P2X purinoceptor 7): 18100 nM; Activity (SH-SY5Y [10]): Active; IC50 at 24 h [17]: 20500 nM; Activity (Danio rerio [11]): 33.1%; Papp at 16 h [18]: 4 ×10⁻⁶ cm/s; Activity (Danio rerio [7]): Active; Activity (SH-SY5Y [12]): Active
Cc1cccc2sc(NC(=O)CCN3CCN(C(C)C)CC3)nc12 | 1800 | 1.38 | > 1000 | 14400 | 1300 | 2750 | 
Cc1cccc2sc(NC(=O)CCN3CCN(c4ccccn4)CC3)nc12 | > 1000 |  | > 1000 | > 40000 | 1000 | 17200 | IC50 (P2X purinoceptor 7): 1400 nM
Cc1cccc2sc(NC(=O)CCN3CCN(Cc4cccc5ccccc45)CC3)nc12 | > 1000 |  | > 1000 | 32900 | 1000 | 19300 | 
Cc1cccc2sc(NC(=O)CCN3CCN(CC4CCCO4)CC3)nc12 (racemic) | 5000 | 45.9 | 457 | 12800 | 109 | 7910 | fold change (FC) (PC-12 [19]): 2.4; Activity (SH-SY5Y [10]): Active; IC50 at 24 h [6]: 46300 nM; Activity (Danio rerio [7]): Active; Activity (SH-SY5Y [12]): Active
COc1cc2c(cc1OC)C(=O)C(CC1CCN(Cc3ccccc3)CC1)C2 (stereo not given) [DONEPEZIL] |  |  |  |  |  |  | Activity (Danio rerio [11]): 4.3%
CCCCN1CCN(CCC(=O)Nc2nc3c(C)cccc3s2)CC1 | 1200 | 5.88 | 229 | 30100 | 204 | > 40000 | 
Cc1cccc2sc(NC(=O)CCN3CCN(Cc4ccccc4F)CC3)nc12 | > 1000 |  | > 1000 | 2900 | 1700 | 5220 | 
Cc1cccc2sc(NC(=O)CCN3CCN(C4CCN(C)CC4)CC3)nc12 | 3600 |  | > 1000 | > 40000 | 6000 | 10500 | Ratio Ki [9]: 1.66
Cc1cccc2sc(NC(=O)CCN3CCN(CCN(C)C)CC3)nc12 | > 1000 |  | > 1000 | > 40000 | 1000 | 480 | IC50 (P2X purinoceptor 7): 2150 nM
CCCCCCN1CCN(CCC(=O)Nc2nc3c(C)cccc3s2)CC1 | 158 |  | 115 | 29300 | 238 | > 40000 | Ratio Ki [9]: 1.5; Activity (SH-SY5Y [5]): Active; Activity (SH-SY5Y [8]): Active
Cc1ccccc1N1CCN(CCC(=O)Nc2nc3c(C)cccc3s2)CC1 | > 1000 |  | > 1000 | 8630 | 1000 | > 40000 | 
Cc1cccc2sc(NC(=O)CCN3CCN(c4ncccn4)CC3)nc12 | > 1000 | > 1.98 | > 1000 | > 40000 | 505 | 30000 | IC50 (P2X purinoceptor 7): 1330 nM
